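A five-concentration, 48-hour dose response in 96-well plates underlies each endpoint, interpolated linearly between surrounding concentrations. GI50 is the concentration that inhibits growth by half.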 The source made the active and inactive calls. Cut-off read from the data, not from the text of the source: active = GI50 up to about 1.1 µM and inactive = higher.
Columns and labels:
Assay in all cases: DTP human tumour cell line panel, 48 h
SK-MEL-5 = system: SK-MEL-5
CAKI-1 = system: CAKI-1
SK-MEL-2 = system: SK-MEL-2
SF-539 = system: SF-539
K562 = system: K562
MCF7 = system: MCF7
RPMI-8226 = system: RPMI-8226
SR = system: SR
HT-29 = system: HT-29
A498 = system: A498
UACC-257 = system: UACC-257
EKVX = system: EKVX
SNB-19 = system: SNB-19
SK-OV-3 = system: SK-OV-3
IGROV-1 = system: IGROV-1
NCI-H460 = system: NCI-H460
ACHN = system: ACHN
HL-60 = system: HL-60
SK-MEL-28 = system: SK-MEL-28
UACC-62 = system: UACC-62
OVCAR-5 = system: OVCAR-5
OVCAR-3 = system: OVCAR-3
PC-3 = system: PC-3
HCC 2998 = system: HCC 2998
MDA-N = system: MDA-N
OVCAR-4 = system: OVCAR-4
OVCAR-8 = system: OVCAR-8
COLO 205 = system: COLO 205
M14 = system: M14
MDA-MB-231 = system: MDA-MB-231
DU-145 = system: DU-145
NCI-H23 = system: NCI-H23
Malme-3M = system: Malme-3M
MDA-MB-435 = system: MDA-MB-435
T47D = system: T47D
TK-10 = system: TK-10
NCI/ADR-RES = system: NCI/ADR-RES
SW-620 = system: SW-620
HOP-92 = system: HOP-92
RXF 393 = system: RXF 393
UO-31 = system: UO-31
SF-295 = system: SF-295
LOX IMVI = system: LOX IMVI
U-251 = system: U-251
HOP-62 = system: HOP-62
CCRF-CEM = system: CCRF-CEM
MOLT-4 = system: MOLT-4
HCT-15 = system: HCT-15
A549 = system: A549
786-0 = system: 786-0
NCI-H226 = system: NCI-H226
SNB-75 = system: SNB-75
Hs-578T = system: Hs-578T
KM12 = system: KM12
HCT-116 = system: HCT-116
SF-268 = system: SF-268
SN12C = system: SN12C
NCI-H522 = system: NCI-H522
BT-549 = system: BT-549

In the case of CCOC(=O)c1csc(NC(=O)CCN2CCCCC2)n1, the GI50 (SK-MEL-5) is reported as > 100 µM (inactive), the GI50 (CAKI-1) is reported as > 100 µM (inactive) and the GI50 (SK-MEL-2) is reported as > 100 µM (inactive). The GI50 (SF-539) was > 100 µM (inactive), the GI50 (K562) was > 100 µM (inactive) and the GI50 (MCF7) was > 100 µM (inactive). For the same compound, the GI50 (RPMI-8226) was > 100 µM (inactive), the GI50 (SR) was > 100 µM (inactive) and the GI50 (HT-29) was > 100 µM (inactive). The GI50 (A498) was > 100 µM (inactive), the GI50 (UACC-257) was > 100 µM (inactive) and the GI50 (EKVX) was > 100 µM (inactive). For the same compound, the GI50 (SNB-19) was > 100 µM (inactive), the GI50 (SK-OV-3) was > 100 µM (inactive) and the GI50 (IGROV-1) was > 100 µM (inactive). For the same compound, the GI50 (NCI-H460) was > 100 µM (inactive), the GI50 (ACHN) was > 100 µM (inactive) and the GI50 (HL-60) was > 100 µM (inactive). The GI50 (SK-MEL-28) was > 100 µM (inactive), the GI50 (UACC-62) was > 100 µM (inactive) and the GI50 (OVCAR-5) was > 100 µM (inactive). The GI50 (OVCAR-3) was > 100 µM (inactive), the GI50 (PC-3) was > 100 µM (inactive) and the GI50 (HCC 2998) was > 100 µM (inactive). The GI50 (MDA-N) was > 100 µM (inactive), the GI50 (OVCAR-4) was > 100 µM (inactive) and the GI50 (OVCAR-8) was > 100 µM (inactive). The GI50 (COLO 205) was > 100 µM (inactive), the GI50 (M14) was > 100 µM (inactive) and the GI50 (MDA-MB-231) was > 100 µM (inactive). For the same compound, the GI50 (DU-145) was > 100 µM (inactive), the GI50 (NCI-H23) was > 100 µM (inactive) and the GI50 (Malme-3M) was > 100 µM (inactive). The GI50 (MDA-MB-435) was > 100 µM (inactive), the GI50 (T47D) was > 100 µM (inactive) and the GI50 (TK-10) was > 100 µM (inactive). The GI50 (NCI/ADR-RES) was > 100 µM (inactive), the GI50 (SW-620) was > 100 µM (inactive) and the GI50 (HOP-92) was > 100 µM (inactive). For the same compound, the GI50 (RXF 393) was > 100 µM (inactive), the GI50 (UO-31) was > 100 µM (inactive) and the GI50 (SF-295) was > 100 µM (inactive). The GI50 (LOX IMVI) was > 100 µM (inactive), the GI50 (U-251) was > 100 µM (inactive) and the GI50 (HOP-62) was > 100 µM (inactive). For the same compound, the GI50 (CCRF-CEM) was > 100 µM (inactive), the GI50 (MOLT-4) was 73.3 µM (inactive) and the GI50 (HCT-15) was > 100 µM. The GI50 (A549) was > 100 µM (inactive).
Cc1ccc(S(=O)(=O)N/N=C2\C=C[C@]3(CC2)C(=O)N(C)c2ccccc23)cc1 was tested, and the GI50 (SK-MEL-5) was > 100 µM (inactive), the GI50 (CAKI-1) was > 100 µM (inactive) and the GI50 (SK-MEL-2) was > 100 µM (inactive). The GI50 (786-0) was 33.5 µM (inactive), the GI50 (K562) was > 100 µM (inactive) and the GI50 (MCF7) was > 100 µM (inactive). For the same compound, the GI50 (RPMI-8226) was > 100 µM (inactive), the GI50 (SR) was > 100 µM (inactive) and the GI50 (A498) was > 100 µM (inactive). The GI50 (UACC-257) was > 100 µM (inactive), the GI50 (EKVX) was > 100 µM (inactive) and the GI50 (SNB-19) was > 100 µM (inactive). For the same compound, the GI50 (NCI-H226) was 69 µM (inactive), the GI50 (SK-OV-3) was > 100 µM (inactive) and the GI50 (IGROV-1) was > 100 µM (inactive). For the same compound, the GI50 (NCI-H460) was > 100 µM (inactive), the GI50 (ACHN) was > 100 µM (inactive) and the GI50 (HL-60) was > 100 µM (inactive). For the same compound, the GI50 (SNB-75) was > 100 µM (inactive), the GI50 (SK-MEL-28) was > 100 µM (inactive) and the GI50 (UACC-62) was > 100 µM (inactive). The GI50 (OVCAR-5) was > 100 µM (inactive), the GI50 (OVCAR-3) was > 100 µM (inactive) and the GI50 (PC-3) was > 100 µM (inactive). The GI50 (HCC 2998) was > 100 µM (inactive), the GI50 (MDA-N) was > 100 µM (inactive) and the GI50 (OVCAR-4) was > 100 µM (inactive). For the same compound, the GI50 (Hs-578T) was 98.9 µM (inactive), the GI50 (OVCAR-8) was > 100 µM (inactive) and the GI50 (COLO 205) was > 100 µM (inactive). The GI50 (M14) was > 100 µM (inactive), the GI50 (MDA-MB-231) was > 100 µM (inactive) and the GI50 (DU-145) was > 100 µM (inactive). The GI50 (NCI-H23) was > 100 µM (inactive), the GI50 (MDA-MB-435) was > 100 µM (inactive) and the GI50 (T47D) was > 100 µM (inactive). The GI50 (KM12) was > 100 µM (inactive), the GI50 (NCI/ADR-RES) was > 100 µM (inactive) and the GI50 (SW-620) was > 100 µM (inactive). For the same compound, the GI50 (HCT-116) was > 100 µM (inactive), the GI50 (HOP-92) was > 100 µM (inactive) and the GI50 (RXF 393) was > 100 µM (inactive). For the same compound, the GI50 (UO-31) was > 100 µM (inactive), the GI50 (SF-268) was > 100 µM (inactive) and the GI50 (SF-295) was > 100 µM (inactive). For the same compound, the GI50 (LOX IMVI) was > 100 µM (inactive), the GI50 (SN12C) was > 100 µM (inactive) and the GI50 (U-251) was > 100 µM (inactive). The GI50 (HOP-62) was > 100 µM (inactive), the GI50 (CCRF-CEM) was > 100 µM (inactive) and the GI50 (MOLT-4) was > 100 µM (inactive). The GI50 (HCT-15) was > 100 µM and the GI50 (A549) was > 100 µM (inactive).
In the case of Cc1cnc2nc(-c3ccc4ccccc4c3)cc(O)c2c1, the GI50 (SK-MEL-2) is reported as > 100 µM (inactive), the GI50 (786-0) is reported as 0.61 µM (active) and the GI50 (SF-539) is reported as 0.391 µM (active). For the same compound, the GI50 (K562) was 0.251 µM (active), the GI50 (MCF7) was 0.561 µM (active) and the GI50 (RPMI-8226) was 0.305 µM (active). The GI50 (HT-29) was 0.53 µM (active), the GI50 (A498) was 0.421 µM (active) and the GI50 (SNB-19) was 0.908 µM (active). The GI50 (NCI-H226) was 0.504 µM (active), the GI50 (SK-OV-3) was 0.578 µM (active) and the GI50 (IGROV-1) was 0.843 µM (active). For the same compound, the GI50 (ACHN) was 0.658 µM (active), the GI50 (SNB-75) was 0.391 µM (active) and the GI50 (SK-MEL-28) was > 100 µM (inactive). For the same compound, the GI50 (UACC-62) was 0.317 µM (active), the GI50 (OVCAR-5) was 0.855 µM (active) and the GI50 (HCC 2998) was 1.4 µM (inactive). For the same compound, the GI50 (OVCAR-4) was 0.659 µM (active), the GI50 (Hs-578T) was 0.449 µM (active) and the GI50 (OVCAR-8) was 0.685 µM (active). The GI50 (COLO 205) was 0.342 µM (active), the GI50 (M14) was 0.547 µM (active) and the GI50 (MDA-MB-231) was 1.05 µM (active). The GI50 (DU-145) was 0.408 µM (active), the GI50 (NCI-H23) was 0.434 µM (active) and the GI50 (T47D) was > 100 µM (inactive). For the same compound, the GI50 (KM12) was 0.444 µM (active), the GI50 (TK-10) was 2.4 µM (inactive) and the GI50 (NCI/ADR-RES) was 0.349 µM (active). For the same compound, the GI50 (SW-620) was 0.359 µM (active), the GI50 (NCI-H522) was 0.321 µM (active) and the GI50 (UO-31) was 0.847 µM (active). The GI50 (SF-268) was 2.81 µM (inactive), the GI50 (LOX IMVI) was 0.728 µM (active) and the GI50 (BT-549) was > 100 µM (inactive). The GI50 (SN12C) was 0.966 µM (active), the GI50 (HOP-62) was 0.851 µM (active) and the GI50 (CCRF-CEM) was 0.323 µM (active). For the same compound, the GI50 (MOLT-4) was 0.431 µM (active), the GI50 (HCT-15) was 0.439 µM and the GI50 (A549) was 0.625 µM (active).
